In paper PMC7571145, “Multistep Synthesis and In Vitro Anticancer Evaluation of 2-Pyrazolyl-Estradiol Derivatives, Pyrazolocoumarin-Estradiol Hybrids and Analogous Compounds” (Molecules, 2020):
Where two headings read alike, the source gives them in different places.

Legend:
MRC-5 fibroblasts = test: MTT cytotoxicity assay on non-cancerous MRC-5 fibroblasts; type: cell-based; settings: for primary growth inhibitory screen, cell viability, MRC-5 / effect on non-cancerous fibroblasts: 2.5 µM; for primary growth inhibitory screen, cell viability, MRC-5 / IC50: MTT; for primary growth inhibitory screen, cell viability, MRC-5: mean±SD, untreated control about 100; for IC50: mean ± SD; for effect on non-cancerous fibroblasts: based on the heat map
Description: (§1) Cytotoxicity screens were performed to assess the in vitro anticancer activity of the synthesized A-ring-linked 2-pyrazoles of estradiol, the pyrazolocoumarin-estradiol hybrids, and their structurally simplified non-steroidal analogs on various cancerous cell lines such as MCF-7, PC-3, DU145, and HeLa and on non-cancerous MRC-5 fibroblasts. The 2-acetyl-phenol starting materials (4, 5, and 15) were also included for comparison. All compounds were applied in 2.5 µM concentration for 72 h. The obtained cell viability data were used to construct a heat map (Figure 2) in order to select compounds that exert cancer cell line-specific cytotoxicity. […] Furthermore, some compounds discriminated only DU145 cells and could eliminate these type of prostate cancer cells.
(§2) To understand structure-function relationships, we also included the structural analogs of the selected compounds, namely 7a (C-17 acetate of 8a), 8c (C-17 OH counterpart of 7c), and 9a (steroidal pair of 19a) into subsequent analyses. […] For this, compounds were applied on MCF-7, PC-3, DU145, and HeLa and on non-cancerous MRC-5 fibroblasts in various concentrations for 72 h or were treated with cisplatin at different concentrations. On the viability data, dose–response curves were fitted (Figure S1) and IC50 values were calculated accordingly (Table 3). In agreement with the primary cytotoxicity screen (Table S1), the obtained IC50 concentrations clearly indicated which compound was selectively effective on one or more cancer cell lines. […] Typically, acetylated steroidal pyrazoles were less favorable than deacetylated counterparts due to reduced cancer cell selectivity (7c, 10a).
(§3) To evaluate the in vitro pharmacological effects of the synthesized molecules, each compound was first dissolved in cell culture grade DMSO (Sigma) to a final concentration of 10 mM. Using MTT colorimetric assay, the cytotoxicity of these compounds was evaluated on cancerous (MCF-7, HeLa, DU145, PC-3) and non-cancerous (MRC-5) cell lines. Briefly, 5000 cells/well of each cell line were seeded in 96-well plates and were left to grow overnight in a 5% CO2 atmosphere at 37 °C. On the next day, cells were treated with each derivative separately, in case of the primary screen, or only with the selected compounds upon IC50 determination. Cells were incubated with the test compounds for 72 h in a 5% CO2 atmosphere at 37 °C. End point was measured by incubating cells for 1 h with 0.5 mg/mL of MTT reagent (Serva) dissolved in serum free culture medium. The formazan crystals formed by metabolically active cells were later dissolved in DMSO. Optical density of the obtained solutions was measured at 570 nm using a Synergy HTX plate reader. […] The analysis and conclusions were made based on three independent experiments. Normalized data were analyzed and the heat map was constructed using GraphPad Prism 7 software.

PC-3 cells = test: MTT cytotoxicity assay on PC-3 prostate cancer cells; type: cell-based; settings: for primary growth inhibitory screen, cell viability, PC-3: 2.5 µM, 72 h, mean±SD, untreated control about 100; for IC50: mean ± SD
Description: as §1, §2, §3

DU145 cells = test: MTT cytotoxicity assay on DU145 prostate cancer cells; type: cell-based; settings: for primary growth inhibitory screen, cell viability, DU145: 2.5 µM, 72 h, mean±SD, untreated control about 100; for IC50: mean ± SD
Description: as §1, §2, §3

MCF-7 cells = test: MTT cytotoxicity assay on MCF-7 cells; type: cell-based; settings: for primary growth inhibitory screen, cell viability, MCF-7: 2.5 µM, 72 h, mean±SD, untreated control about 100; for IC50: mean ± SD
Description: as §1, §2, §3

HeLa cells = test: MTT cytotoxicity assay on HeLa cells; type: cell-based; settings: for primary growth inhibitory screen, cell viability, HeLa: 2.5 µM, mean±SD, untreated control about 100; for IC50: mean ± SD
Description: as §1, §2, §3

[1] = Homo sapiens, MRC5, 72 h, compounds 1-7 µM, read-out: IC50 on MRC-5
[2] = Homo sapiens, PC-3, 72 h, compounds 1-7 µM, read-out: IC50 on PC-3
[3] = Homo sapiens, DU-145, 72 h, compounds 1-7 µM, read-out: IC50 on DU145
[4] = Homo sapiens, MCF7, 72 h, compounds 1-7 µM, read-out: IC50 on MCF-7
[5] = Homo sapiens, HeLa, 72 h, compounds 1-7 µM, read-out: IC50 on HeLa

Compound | primary growth inhibitory screen, cell viability, MRC-5 (MRC-5 fibroblasts; 72 h) | primary growth inhibitory screen, cell viability, PC-3 (PC-3 cells) | primary growth inhibitory screen, cell viability, DU145 (DU145 cells) | primary growth inhibitory screen, cell viability, MCF-7 (MCF-7 cells) | primary growth inhibitory screen, cell viability, HeLa (HeLa cells; 72 h) | melting point | IC50 (MRC-5 fibroblasts; [1]) [µM] | IC50 (PC-3 cells; [2]) [µM] | IC50 (DU145 cells; [3]) [µM] | IC50 (MCF-7 cells; [4]) [µM] | IC50 (HeLa cells; [5]) [µM] | effect on non-cancerous fibroblasts (MRC-5 fibroblasts; 72 h) | IC50 (MRC-5 fibroblasts; cisplatin applied for 24 h, 20-330 µM, read-out: IC50 on MRC-5 (positive control)) [µM] | IC50 (PC-3 cells; cisplatin applied for 24 h, 20-330 µM, read-out: IC50 on PC-3 (positive control)) [µM] | IC50 (DU145 cells; cisplatin applied for 24 h, 20-330 µM, read-out: IC50 on DU145 (positive control)) [µM] | IC50 (MCF-7 cells; cisplatin applied for 24 h, 20-330 µM, read-out: IC50 on MCF-7 (positive control)) [µM] | IC50 (HeLa cells; cisplatin applied for 24 h, 20-330 µM, read-out: IC50 on HeLa (positive control)) [µM]
CC(=O)O[C@H]1CC[C@H]2[C@@H]3CCc4cc(O)c(C(C)=O)cc4[C@H]3CC[C@]12C [Compound 4, 2-Acetyl-estra-1,3,5(10)-triene-3,17β-diol-17-acetate] | ≥ 100±6.6 | 88.5±6.5 | 94.2±8.6 | 92.7±2.2 | 90.0±4.3 | 200 to 202 °C | – | – | – | – | – | – | – | – | – | – | –
CC(=O)c1cc2c(cc1O)CC[C@@H]1[C@@H]2CC[C@]2(C)[C@@H](O)CC[C@@H]12 [Compound 5, 2-Acetyl-estra-1,3,5(10)-triene-3,17β-diol] | ≥ 100±7 | 79.0±3.8 | 100.6±6.5 | 87.5 | 99.6±3.5 | 189 to 191 °C | – | – | – | – | – | – | – | – | – | – | –
CC(=O)O[C@H]1CC[C@H]2[C@@H]3CCc4cc(O)c(-c5nn(-c6ccccc6)cc5C=O)cc4[C@H]3CC[C@]12C [Compound 7a, 2-(4′-Formyl-1′-phenyl-1′H-pyrazol-3′-yl)-estra-1,3,5(10)-triene-3,17β-diol-17-acetate] | ≥ 100±5.7 | 87.8±7.1 | 108.7±9.1 | 98.6±5.2 | 102.7±2.7 | 230 to 232 °C | 5.9 ± 1 | 3.63 ± 1 | 6.93 ± 1 | 4.49 ± 1 | 4.18 ± 1 | – | – | – | – | – | –
CC(=O)O[C@H]1CC[C@H]2[C@@H]3CCc4cc(O)c(-c5nn(-c6ccc(C)cc6)cc5C=O)cc4[C@H]3CC[C@]12C [Compound 7b, 2-(4′-Formyl-1′-(4″-tolyl)-1′H-pyrazol-3′-yl)-estra-1,3,5(10)-triene-3,17β-diol-17-acetate] | 100.4±5.1 | 98.2±6.5 | 98.7±15.6 | ≥ 100±4.3 | 100.1±2.1 | 229 to 231 °C | – | – | – | – | – | – | – | – | – | – | –
CC(=O)O[C@H]1CC[C@H]2[C@@H]3CCc4cc(O)c(-c5nn(-c6ccc(Cl)cc6)cc5C=O)cc4[C@H]3CC[C@]12C [Compound 7c, 2-(1′-(4″-Chlorophenyl)-4′-formyl-1′H-pyrazol-3′-yl)-estra-1,3,5(10)-triene-3,17β-diol-17-acetate] | 78.9±4.3 | 36.0±4.5 | 70.4±3.6 | 57.4±10.6 | 94.1±1.9 | 268 to 270 °C | 4.76 ± 1.1 | 2.14 ± 1.1 | 3.37 ± 1 | 1.99 ± 1.1 | 5.32 ± 1.1 | no or very mild effect | – | – | – | – | –
C[C@]12CC[C@@H]3c4cc(-c5nn(-c6ccccc6)cc5C=O)c(O)cc4CC[C@H]3[C@@H]1CC[C@@H]2O [Compound 8a, 2-(4′-Formyl-1′-phenyl-1′H-pyrazol-3′-yl)-estra-1,3,5(10)-trien-3,17β-diol] | 99.9±3.3 | 54.9±3.0 | 108.8±4.1 | 100.9±4.8 | 100.4±1.6 | 172 to 174 °C | 5.12 ± 1 | 3.05 ± 1 | 6.46 ± 1 | 5.03 ± 1 | 4.09 ± 1 | no or very mild effect | – | – | – | – | –
Cc1ccc(-n2cc(C=O)c(-c3cc4c(cc3O)CC[C@@H]3[C@@H]4CC[C@]4(C)[C@@H](O)CC[C@@H]34)n2)cc1 [Compound 8b, 2-(4′-Formyl-1′-(4″-tolyl)-1′H-pyrazol-3′-yl)-estra-1,3,5(10)-trien-3,17β-diol] | ≥ 100±2.4 | 67.8±3.8 | ≥ 100±10.2 | ≥ 100±8.2 | 92.2±8.5 | > 190 °C (dec.) | – | – | – | – | – | – | – | – | – | – | –
C[C@]12CC[C@@H]3c4cc(-c5nn(-c6ccc(Cl)cc6)cc5C=O)c(O)cc4CC[C@H]3[C@@H]1CC[C@@H]2O [Compound 8c] | ≥ 100±3.3 | 94.8±4.0 | ≥ 100±5.0 | ≥ 100±5.3 | 83.1±6.2 | > 190 °C (dec.) | 5.53 ± 1 | 5.08 ± 1 | 4.82 ± 1 | 5.34 ± 1 | 3.39 ± 1 | – | – | – | – | – | –
CC(=O)O[C@H]1CC[C@H]2[C@@H]3CCc4cc5oc(=O)c6cn(-c7ccccc7)nc6c5cc4[C@H]3CC[C@]12C [Compound 9a] | ≥ 100±8.1 | 82.0±2.2 | ≥ 100±5.8 | ≥ 100±2.4 | 73.8±0.6 | 198 to 200 °C | 6.41 ± 1.1 | 4.22 ± 1 | 5.66 ± 1 | 4.94 ± 1 | 1.55 ± 1 | – | – | – | – | – | –
CC(=O)O[C@H]1CC[C@H]2[C@@H]3CCc4cc5oc(=O)c6cn(-c7ccc(C)cc7)nc6c5cc4[C@H]3CC[C@]12C [Compound 9b] | ≥ 100±4.2 | 86.2±2.4 | ≥ 100±4.5 | ≥ 100±0.8 | 68.0±0.4 | 264 to 266 °C | – | – | – | – | – | – | – | – | – | – | –
CC(=O)O[C@H]1CC[C@H]2[C@@H]3CCc4cc5oc(=O)c6cn(-c7ccc(Cl)cc7)nc6c5cc4[C@H]3CC[C@]12C [Compound 9c] | 89.5±8.7 | 94.1±4.2 | ≥ 100±0.9 | 91.1±3.1 | 75.7±1.7 | 283 to 285 °C | – | – | – | – | – | – | – | – | – | – | –
CC(=O)O[C@H]1CC[C@H]2[C@@H]3CCc4cc(O)c(-c5nn(-c6ccccc6)cc5CO)cc4[C@H]3CC[C@]12C [Compound 10a] | 93.6±1.7 | 63.6±17.8 | ≥ 100±15.8 | 73.5±7.2 | 83.2±2.0 | 257 to 259 °C | – | – | – | – | – | – | – | – | – | – | –
N.N.[Cl][Pt][Cl] [cisplatin, reference compound] | – | – | – | – | – | – | – | – | – | – | – | – | 34.3 ± 1.02 | > 330 | 116.1 ± 1.06 | > 330 | 297.1 ± 1.02
